Patent US7422793B2, “Non-toxic corrosion-protection rinses and seals based on rare earth elements” (University of Dayton, priority 2002, dated 2008)

Assay: not given
Conditions: fluoride preparative agents; at or near 25° C. and at or near pH 7; cited from earlier work

| Compound | Solubility in Water |
| --- | --- |
| F[Si-2](F)(F)(F)(F)F.[Na+].[Na+] [Sodium hexafluorosilicate] | 0.035 mol/L |

Same assay, conditions: pH 7; cited from earlier work

| Compound | Solubility in Water |
| --- | --- |
| O=N[O-].[Li+] [Lithium nitrite] | 28 mol/L |
| Potassium niobate | 0.05 mol/L |
| [Cs+].[Cs+].[F][Sn-2]([F])([F])([F])([F])[F] [Cesium hexafluorostannate] | 0.079 mol/L |
| CC[N+](CC)(CC)CC.[O-][Cl+3]([O-])([O-])[O-] [Et4N^+ perchlorate] | 0.5 mol/L |
| [F][Ta-2]([F])([F])([F])([F])([F])[F].[Li+].[Li+] [Lithium heptafluorotantalate] | 0.5 mol/L |
| Cesium tungstate | 5 × 10^0 mole/L |
| [O-][Cl+3]([O-])([O-])[O-].[O-][Cl+3]([O-])([O-])[O-].[Sr+2] [Strontium perchlorate] | 13 mol/L |
| O=[Te](=O)([O-])[O-].[K+].[K+] [Potassium tellurate] | 0.01 mol/L |
| [K+].[K+].[O]=[Sn]([O-])[O-] [Potassium stannate] | 3.7 × 10^0 mole/L |
| [Li+].[O-][Cl+2]([O-])[O-] [Lithium chlorate] | 55 mol/L |
| F[B-](F)(F)F.[K+] [Potassium tetrafluoroborate] | 0.035 mol/L |
| Rubidium bromate | 0.14 mol/L |
| [F][Sn-2]([F])([F])([F])([F])[F].[Li+].[Li+] [Lithium hexafluorostannate] | 0.01 mol/L |
| Rubidium heptafluorotantalate | 0.1 mol/L |
| [O-][I+2]([O-])O[I+2]([O-])[O-] [Iodine pentoxide] | 5.6 × 10^0 mole/L |
| [Cs+].[Cs+].[O]=[Mo](=[O])([O-])[O-] [Cesium molybdate] | 4.8 × 10^0 mole/L |
| Ammonium selenate | 6.0 × 10^0 mole/L |
| Sodium perborate | 0.17 mol/L |
| Iron (III) hexafluorosilicate | “soluble” |
| [K+].[O]=[Al][O-] [Potassium aluminate] | 1 × 10^0 mole/L |
| O=C([O-])c1ccccc1C(=O)O[O-].[Mg+2] [Magnesium monoperoxyphthalate] | 10 mol/L |
| Magnesium vanadate | 1 × 10^0 mole/L |
| Rubidium tellurate | 0.01 mol/L |
| [O-][Cl+3]([O-])([O-])[O-].[O]=[Bi+] [Bismuthyl perchlorate] | 0.1 mol/L |
| Cesium germanate | 0.5 mol/L |
| [F-].[F-].[F][Hf]([F])([F])[F].[K+].[K+] [Potassium hexafluorohafnate] | 0.13 mol/L |

| Compound | Solubility in Water |
| --- | --- |
| Silver (I) fluorogallate | 1 × 10^0 mole/L |
| F[Si-2](F)(F)(F)(F)F.[Ca+2] [Calcium hexafluorosilicate] | 0.5 mol/L |
| Lithium bromate | 4.85 × 10^0 mole/L |
| [F][Nb-2]([F])([F])([F])([F])([F])[F].[K+].[K+] [Potassium heptafluoroniobate] | 0.26 mol/L |
| [Cs+].[Cs+].[F][Ti-2]([F])([F])([F])([F])[F] [Cesium hexafluorotitanate] | 0.055 mol/L |
| [Ce+3].[O-][Cl+3]([O-])([O-])[O-].[O-][Cl+3]([O-])([O-])[O-].[O-][Cl+3]([O-])([O-])[O-] [Cerium (III) perchlorate] | 2.0 × 10^0 mole/L |
| [Ca+2].[O-][Cl+2]([O-])[O-].[O-][Cl+2]([O-])[O-] [Calcium chlorate] | 7.4 × 10^0 mole/L |
| [F][Ti-2]([F])([F])([F])([F])[F].[Li+].[Li+] [Lithium hexafluorotitanate] | 0.05 mol/L |
| Potassium fluoroaluminate | 0.0061 mol/L |
| [Na+].[O-2].[O-2].[O-2].[Ta+5] [Sodium tantalate] | 0.0055 mol/L |
| [Mg+2].[O]=[Mo](=[O])([O-])[O-] [Magnesium molybdate] | 0.74 mol/L |
| Rubidium heptafluoroniobate | 0.1 mol/L |
| [O]=[Mo](=[O])([OH])[OH] [Molybdic acid] | 0.0074 mol/L |
| O=N[O-].[K+] [Potassium nitrite] | 35 mol/L |
| Rubidium hexafluorostannate | 0.062 mol/L |
| [Na+].[O]=[Nb](=[O])[O-] [Sodium niobate] | 0.059 mol/L |
| [Cs+].[Cs+].[F][Nb-2]([F])([F])([F])([F])([F])[F] [Cesium heptafluoroniobate] | 0.3 mol/L |
| [F][Hf-2]([F])([F])([F])([F])[F].[Na+].[Na+] [Sodium hexafluorohafnate] | 0.07 mol/L |
| Lithium germanate | 0.063 mol/L |
| [F][Sb]([F])([F])([F])[F] [Antimony (V) fluoride] | 1 × 10^0 mole/L |
| [Li+].[O-][Cl+3]([O-])([O-])[O-] [Lithium perchlorate] | 5.6 × 10^0 mole/L |
| [F][Hf-2]([F])([F])([F])([F])[F].[Li+].[Li+] [Lithium hexafluorohafnate] | 0.1 mol/L |
| [F][Ta-2]([F])([F])([F])([F])([F])[F].[Na+].[Na+] [Sodium heptafluorotantalate] | 0.05 mol/L |
| [Li+].[Li+].[O-][O-] [Lithium peroxide] | 1 × 10^0 mole/L |
| CCC[N+](CCC)(CCC)CCC.[O-][Cl+3]([O-])([O-])[O-] [Pr4N^+ perchlorate] | 0.1 mol/L |
| [O-][Cl+2]([O-])[O-].[O-][Cl+2]([O-])[O-].[Zn+2] [Zinc chlorate] | 8.6 × 10^0 mole/L |

Assay: not given
Conditions: in acid solution; couple to the trivalent ion; cited from earlier work

| Compound | oxidation-reduction potential |
| --- | --- |
| [Ce+4] [Ce^+4, tetravalent cerium ion] | +1.72 V |
| hexavalent chromium [Cr^+6, reference compound] | +1.36 V |

Same assay, conditions: in acidic solution; Nugent et al. 1971; cited from earlier work

| Compound | calculated redox potential |
| --- | --- |
| [Pr+4] [Pr^+4, tetravalent praseodymium ion] | +3.2 V |
| [Tb+4] [Tb^+4, tetravalent terbium ion] | +3.2 V |

Assay: pH change on placing the compound into deionized water of pH 7
Assay type: physicochemical
Conditions: simple laboratory experiment
Source text: A simple laboratory experiment confirms this effect. […] However, if icosahedral Ce(NO3)6^2− (note that this ion contains no hydroxide) is placed into deionized water of pH 7, a quite remarkable pH drop to −1 can be observed. The released tetravalent cerium ions will scavenge virtually all of the available OH^− ions in solution (possibly even degrading H2O itself to obtain […]), resulting in this dramatic pH drop.

| Compound | pH after placing into deionized water of pH 7 |
| --- | --- |
| [Ce+4].[OH-].[OH-].[OH-].[OH-] [Ce(OH)4, ceric hydroxide, reference compound] | only a minor pH change |
| O=[N+]([O-])O.O=[N+]([O-])O.O=[N+]([O-])O.O=[N+]([O-])O.O=[N+]([O-])O.O=[N+]([O-])O.[Ce] [Ce(NO3)6^2−, hexanitratocerate (IV)] | −1 |
